Data reported in patent US20170152226A1, “FUNCTIONALISED AND SUBSTITUTED INDOLES AS ANTI-CANCER AGENTS” (Novogen Ltd., priority 2014, published 2017).
Read-outs that look alike come from different tables or passages of the source.

What was measured:
Test in all cases: Anti-proliferative activity, cell-titre luminescent viability assay
Format in all cases: cell-based
A549 = conditions: read-out: IC50 Lung (NSLC) A549
Protocol: (§1) The ability of compounds 3501-3540 and 3542-3545 to inhibit the proliferation of cancer cells representative of neuroblastoma, melanoma, prostate cancer, colorectal cancer, non-small cell lung carcinoma, and triple negative breast cancer was assessed. Briefly, a pre-determined number of cells as calculated from cell growth assays for each of the cell lines employed were seeded into their respective culture medium (using ATCC culture parameters—http://www.atcc.org) and cultured for 24 hours at 37° C. and 5% CO2 in 96-well culture plates. Once attached, each cell line was then exposed to increasing concentrations of each respective analogue (0.03, 0.3, 3 and 30 μM for compounds in Table 1; 0.1, 0.3, 1, 3, 10 and 30 μM for compounds in Table 2), cultured for a further 72 hours and exposed to cell-titre luminescent reagent (100 μL/well) for a further 30 min) to assess for cell viability. Luminescence was captured using an EnVision multilabel reader and the data for each analogue concentration was normalized, as a percentage, to the no treatment control. For compounds 3501, 3503, 3505-08, 3512-18, 3520, 3522-24 and 3531-36, semi-log plots of Percent of Control versus concentration were prepared and IC50 determined using linear regression analysis. For compounds 3502, 3504, 3509-11, 3519, 3521, 3525-30, 3537-40 and 3542-45, cell viability was normalized to control (vehicle alone) and dose-response curves, and half maximal effective concentration (EC50) values were determined using Graph Pad Prism 6 (nonlinear regression sigmoidal dose-response variable slope).

CaCo2 = conditions: read-out: IC50 Colorectal CaCo2
Protocol: as §1

DU145 = conditions: read-out: IC50 Prostate DU145
Protocol: as §1

MDA-MB-231 = conditions: read-out: IC50 Breast MDA-MB-231
Protocol: as §1

PC3 = conditions: read-out: IC50 Prostate PC3
Protocol: as §1

SK-Mel-28 = conditions: 72 hours, read-out: IC50 Melanoma SK-Mel-28
Protocol: as §1

SK-N-SH = conditions: read-out: IC50 Neuroblastoma SK-N-SH
Protocol: as §1

[1] = Homo sapiens, A549, 72 h, 0.03, 0.3, 3 and 30 μM, linear regression of semi-log plots
[2] = Homo sapiens, Caco-2, 72 h, 0.03, 0.3, 3 and 30 μM, linear regression of semi-log plots
[3] = Homo sapiens, DU-145, 72 h, 0.03, 0.3, 3 and 30 μM, linear regression of semi-log plots
[4] = Homo sapiens, MDA-MB-231, 72 h, 0.03, 0.3, 3 and 30 μM, linear regression of semi-log plots
[5] = Homo sapiens, PC-3, 72 h, 0.03, 0.3, 3 and 30 μM, linear regression of semi-log plots
[6] = Homo sapiens, SK-MEL-28, 0.03, 0.3, 3 and 30 μM, linear regression of semi-log plots
[7] = Homo sapiens, SK-N-SH, 72 h, 0.03, 0.3, 3 and 30 μM, linear regression of semi-log plots
[8] = Homo sapiens, A549, 72 h, 0.1, 0.3, 1, 3, 10 and 30 μM, nonlinear regression sigmoidal dose-response (EC50)
[9] = Homo sapiens, Caco-2, 72 h, 0.1, 0.3, 1, 3, 10 and 30 μM, nonlinear regression sigmoidal dose-response (EC50)
[10] = Homo sapiens, DU-145, 72 h, 0.1, 0.3, 1, 3, 10 and 30 μM, nonlinear regression sigmoidal dose-response (EC50)
[11] = Homo sapiens, MDA-MB-231, 72 h, 0.1, 0.3, 1, 3, 10 and 30 μM, nonlinear regression sigmoidal dose-response (EC50)
[12] = Homo sapiens, PC-3, 72 h, 0.1, 0.3, 1, 3, 10 and 30 μM, nonlinear regression sigmoidal dose-response (EC50)
[13] = Homo sapiens, SK-MEL-28, 0.1, 0.3, 1, 3, 10 and 30 μM, nonlinear regression sigmoidal dose-response (EC50)
[14] = Homo sapiens, SK-N-SH, 72 h, 0.1, 0.3, 1, 3, 10 and 30 μM, nonlinear regression sigmoidal dose-response (EC50)
[15] = 72 hours, 0.03, 0.3, 3 and 30 μM, linear regression of semi-log plots

Row | IC50 (A549; [1]) [µM] | IC50 (CaCo2; [2]) [µM] | IC50 (DU145; [3]) [µM] | IC50 (MDA-MB-231; [4]) [µM] | IC50 (PC3; [5]) [µM] | IC50 (SK-Mel-28; [6]) [µM] | IC50 (SK-N-SH; [7]) [µM] | IC50 (A549; [8]) [µM] | IC50 (CaCo2; [9]) [µM] | IC50 (DU145; [10]) [µM] | IC50 (MDA-MB-231; [11]) [µM] | IC50 (PC3; [12]) [µM] | IC50 (SK-Mel-28; [13]) [µM] | IC50 (SK-N-SH; [14]) [µM] | Compound | further results
1 | 3.7 | 3.9 | 3.7 | 4.2 | 3.3 | 4.8 | 3.3 | – | – | – | – | – | – | – | Cc1c(C)n(CCCN2CCN(C)CC2)c2ccc(Nc3ccc(C(=O)N4CCN(CCc5ccc6c(c5)OCO6)CC4)cc3)cc12 [Compound 3533, (4-(2-(benzo[d][1,3]dioxol-5-yl)ethyl)piperazin-1-yl)(4-((2,3-dimethyl-1-(3-(4-methylpiperazin-1-yl)propyl)-1H-indol-5-yl)amino)phenyl)methanone] | –
2 | 1.8 | 3.1 | 3.1 | 1.8 | 2.4 | 1.6 | 1.7 | – | – | – | – | – | – | – | COc1ccc(CCN2CCN(C(=O)c3cccc(Oc4ccc5c(c4)c(C)c(C)n5CCCN4CCN(C)CC4)c3)CC2)cc1 [Compound 3508, (3-((2,3-dimethyl-1-(3-(4-methylpiperazin-1-yl)propyl)-1H-indol-5-yl)oxy)phenyl)(4-(4-methoxyphenethyl)piperazin-1-yl)methanone] | –

Continued, compound first:

Row | Compound | IC50 (A549; [1]) [µM] | IC50 (CaCo2; [2]) [µM] | IC50 (DU145; [3]) [µM] | IC50 (MDA-MB-231; [4]) [µM] | IC50 (PC3; [5]) [µM] | IC50 (SK-Mel-28; [6]) [µM] | IC50 (SK-N-SH; [7]) [µM] | IC50 (A549; [8]) [µM] | IC50 (CaCo2; [9]) [µM] | IC50 (DU145; [10]) [µM] | IC50 (MDA-MB-231; [11]) [µM] | IC50 (PC3; [12]) [µM] | IC50 (SK-Mel-28; [13]) [µM] | IC50 (SK-N-SH; [14]) [µM] | further results
3 | Cc1c(C)n(CCCN2CCN(C)CC2)c2ccc(Nc3cccc(C(=O)N4CCN(CCc5ccc(F)cc5)CC4)c3)cc12 [Compound 3513, (3-((2,3-dimethyl-1-(3-(4-methylpiperazin-1-yl)propyl)-1H-indol-5-yl)amino)phenyl)(4-(4-fluorophenethyl)piperazin-1-yl)methanone] | 3.3 | 3.1 | 3.8 | 3.6 | 4 | 3.4 | 3.3 | – | – | – | – | – | – | – | –
4 | Cc1c(C)n(CCCN2CCN(C)CC2)c2ccc(Cc3ccc(C(=O)N4CCN(CCc5ccc(F)cc5)CC4)cc3)cc12 [Compound 3519, (4-((2,3-dimethyl-1-(3-(4-methylpiperazin-1-yl)propyl)-1H-indol-5-yl)methyl)phenyl)(4-(4-fluorophenethyl)piperazin-1-yl)methanone] | – | – | – | – | – | – | – | 4.4 | 5.6 | 4.3 | 5 | 4.9 | 2.5 | 2.6 | –
5 | COc1ccc2cc(CCN3CCN(C(=O)c4ccc(Cc5ccc6c(c5)c(C)c(C)n6CCCN5CCN(C)CC5)cc4)CC3)ccc2c1 [Compound 3543, (4-((2,3-dimethyl-1-(3-(4-methylpiperazin-1-yl)propyl)-1H-indol-5-yl)methyl)phenyl)(4-(2-(6-methoxynaphthalen-2-yl)ethyl)piperazin-1-yl)methanone] | – | – | – | – | – | – | – | 1.5 | 1.5 | 1.7 | 1.3 | 1.8 | 2 | 1.6 | –
6 | COc1ccc(CCN2CCN(C(=O)c3ccc(Nc4ccc5c(c4)c(C)c(C)n5CCCN4CCN(C)CC4)cc3)CC2)cc1 [Compound 3536, (4-((2,3-dimethyl-1-(3-(4-methylpiperazin-1-yl)propyl)-1H-indol-5-yl)amino)phenyl)(4-(4-methoxyphenethyl)piperazin-1-yl)methanone] | – | – | – | – | – | – | – | – | – | – | – | – | – | – | IC50 (A549; [15]): 3.1 µM; IC50 (CaCo2; [15]): 12.9 µM; IC50 (DU145; [15]): 3.6 µM; IC50 (MDA-MB-231; [15]): 2.5 µM; IC50 (PC3; [15]): 4.3 µM; IC50 (SK-Mel-28; 0.03, 0.3, 3 and 30 μM, linear regression of semi-log plots): 2.7 µM; IC50 (SK-N-SH; [15]): 2.9 µM
7 | COc1ccc2cccc(CCN3CCN(C(=O)c4cccc(Cc5ccc6c(c5)c(C)c(C)n6CCCN5CCN(C)CC5)c4)CC3)c2c1 [Compound 3540, (3-((2,3-dimethyl-1-(3-(4-methylpiperazin-1-yl)propyl)-1H-indol-5-yl)methyl)phenyl)(4-(2-(7-methoxynaphthalen-1-yl)ethyl)piperazin-1-yl)methanone] | – | – | – | – | – | – | – | 5 | 4 | 4.6 | 2.3 | 2.3 | 1.9 | 1.7 | –
8 | Cc1c(C)n(CCCN2CCN(C)CC2)c2ccc(Oc3ccc(C(=O)N4CCN(CCc5cccc(F)c5)CC4)cc3)cc12 [Compound 3528] | – | – | – | – | – | – | – | 6.6 | 4.6 | 5.2 | 5.9 | 7.3 | 3.8 | 4.3 | –
9 | Cc1c(C)n(CCCN2CCN(C)CC2)c2ccc(Oc3cccc(C(=O)N4CCN(CCc5ccc6c(c5)OCO6)CC4)c3)cc12 [Compound 3509, (4-(2-(benzo[d][1,3]dioxol-5-yl)ethyl)piperazin-1-yl)(3-((2,3-dimethyl-1-(3-(4-methylpiperazin-1-yl)propyl)-1H-indol-5-yl)oxy)phenyl)methanone] | – | – | – | – | – | – | – | 4.7 | 5.2 | 5.9 | 5 | 6.9 | 5.1 | 5.3 | –
10 | Cc1c(C)n(CCCN2CCN(C)CC2)c2ccc(Oc3cccc(C(=O)N4CCN(CCc5ccccc5)CC4)c3)cc12 [Compound 3512, (3-((2,3-dimethyl-1-(3-(4-methylpiperazin-1-yl)propyl)-1H-indol-5-yl)oxy)phenyl)(4-phenethylpiperazin-1-yl)methanone] | 1.3 | 3.2 | 1.3 | 1.2 | 2.1 | 0.7 | 1.8 | – | – | – | – | – | – | – | –
